Values after ≈ are worked out from the molar mass of the structure shown. Active and inactive are the calls of the source. No cut-off for these calls is given here.
What was measured:
[1] = Cytotoxicity against human KBVIN cells in absence of vinblastine; assay type: functional; details: read-out: ED50 (the source's name)
HT = test: Cytotoxicity against human HT cells; assay type: functional; details: read-out: ED50 (the source's name)
[2] = Cytotoxicity against human U373 cells; assay type: functional, U-373MG ATCC; details: U373 MG, read-out: ED50 (the source's name)
KB = test: Cytotoxicity against human KB cells; assay type: functional; details: read-out: ED50 (the source's name)
A-431 = test: Cytotoxicity against human A431 cells; assay type: functional; details: read-out: ED50 (the source's name)
Lu1 = test: Cytotoxicity against human Lu1 cells; assay type: functional; details: read-out: ED50 (the source's name)
[3] = Cytotoxicity against human KBVIN cells in presence of vinblastine; assay type: functional; details: read-out: ED50 (the source's name)
Col2 = test: Cytotoxicity against human Col2 cells; assay type: functional; details: read-out: ED50 (the source's name)
SK-MEL-2 = test: Cytotoxicity against human SK-MEL-2 cells; assay type: functional; details: read-out: ED50 (the source's name)
ZR-75-1 = test: Cytotoxicity against human ZR-75-1 cells; assay type: functional; details: read-out: ED50 (the source's name)
[4] = Cytotoxicity against human BC1 cells; assay type: functional; details: read-out: ED50 (the source's name)
Betapolyomavirus macacae [5] = test: Induction of DNA-strand scission activity in SV40 form 1 DNA at 25 ug/mL
LNCaP = test: Cytotoxicity against human LNCAP cells; assay type: functional; details: read-out: ED50 (the source's name)
Betapolyomavirus macacae [6] = test: Induction of DNA-strand scission activity in SV40 form 1 DNA at 0.1 ug/mL

Row | Compound | EC50 [1] [µg/mL] | EC50 (HT) [µg/mL] | EC50 [2] [µg/mL] | EC50 (KB) [µg/mL] | EC50 (A-431) [µg/mL] | EC50 (Lu1) [µg/mL] | EC50 [3] [µg/mL] | EC50 (Col2) [µg/mL] | EC50 (SK-MEL-2) [µg/mL] | EC50 (ZR-75-1) [µg/mL] | EC50 [4] [µg/mL] | Activity (Betapolyomavirus macacae [5]) | EC50 (LNCaP) [µg/mL] | Activity (Betapolyomavirus macacae [6])
1 | CC(C)=CCc1cc(O)c(O)c(CC=C(C)C)c1[C@H]1Oc2c(CC=C(C)C)c(O)cc(O)c2C(=O)[C@@H]1O [PETALOSTEMUMOL] | > 20 | 10.3 (≈ 20.3 µM) | > 20 | > 20 | > 20 | > 20 | 1.2 | > 20 | > 20 | 17.1 (≈ 33.6 µM) | > 20 | Active | > 20 | 
2 | BLEOMYCIN SULFATE |  |  |  |  |  |  |  |  |  |  |  |  |  | Active
3 | CC(C)=CCCC1(C)C=Cc2c(-c3oc4cc(O)cc(O)c4c(=O)c3O)ccc(O)c2O1 (configuration not stated) [PETALOPURPURENOL] | 6.7 (≈ 15.4 µM) | 7.3 (≈ 16.7 µM) | 13.3 (≈ 30.5 µM) | 18.9 (≈ 43.3 µM) | 11.9 (≈ 27.3 µM) | 14.8 (≈ 33.9 µM) | 1 | > 20 | 17.1 (≈ 39.2 µM) | 4.1 (≈ 9.39 µM) | 9.9 (≈ 22.7 µM) | inactive | 14.8 (≈ 33.9 µM) | 
